Type in all cases: cell-based
The subject of one experiment is Septoria glycines. Kind of experiment: Septoria glycines growth inhibition in liquid culture (microtiter plate, visual). The conditions noted are these: Septoria glycines, Cyclobutrifluram 0 ppm, read-out: Observed Activity (%). From the text:
A synergistic effect exists whenever the action of an active ingredient combination is greater than the sum of the actions of the individual components. The action to be expected E for a given active ingredient combination obeys the so-called COLBY formula and can be calculated as follows (COLBY, S. R. “Calculating synergistic and antagonistic responses of herbicide combination”. Weeds, Vol. 15, pages 20-22; 1967): • ppm=milligrams of active ingredient (=a.i.) per liter of spray mixture • X=% action by active ingredient A) using p ppm of active ingredient • Y=% action by active ingredient B) using q ppm of active ingredient. According to COLBY, the expected (additive) action of active ingredients A)+B) using p+q ppm of active ingredient is: If the action actually observed (O) is greater than the expected action (E), then the action of the combination is super-additive, i.e. there is a synergistic effect. In mathematical terms, synergism corresponds to a positive value for the difference of (O-E). In the case of purely complementary addition of activities (expected activity), said difference (O-E) is zero. A negative value of said difference (O-E) signals a loss of activity compared to the expected activity. Septoria glycines (Brown Spot): Conidia of the fungus from cryogenic storage were directly mixed into nutrient broth ([…] potato dextrose broth). A DMSO solution of the test compounds was placed into a microtiter plate (96-well format) and the nutrient broth containing the fungal spores was added to it. The test plates were incubated at 24° C. and the inhibition of growth was determined visually after 72 hrs.

A further experiment relates to Septoria tritici. Kind of experiment: Septoria tritici growth inhibition in liquid culture (microtiter plate, photometric). The conditions noted are these: Zymoseptoria tritici, Pyrisoxazole 0 ppm, read-out: Observed Activity (%). The text has this: A synergistic effect exists whenever the action of an active ingredient combination is greater than the sum of the actions of the individual components. The action to be expected E for a given active ingredient combination obeys the so-called COLBY formula and can be calculated as follows (COLBY, S. R. “Calculating synergistic and antagonistic responses of herbicide combination”. Weeds, Vol. 15, pages 20-22; 1967): • ppm=milligrams of active ingredient (=a.i.) per liter of spray mixture • X=% action by active ingredient A) using p ppm of active ingredient • Y=% action by active ingredient B) using q ppm of active ingredient. According to COLBY, the expected (additive) action of active ingredients A)+B) using p+q ppm of active ingredient is: If the action actually observed (O) is greater than the expected action (E), then the action of the combination is super-additive, i.e. there is a synergistic effect. In mathematical terms, synergism corresponds to a positive value for the difference of (O-E). In the case of purely complementary addition of activities (expected activity), said difference (O-E) is zero. A negative value of said difference (O-E) signals a loss of activity compared to the expected activity. Septoria tritici (Leaf Blotch): Conidia of the fungus from cryogenic storage were directly mixed into nutrient broth (PDB potato dextrose broth). A DMSO solution of the test compounds was placed into a microtiter plate (96-well format) and the nutrient broth containing the fungal spores was added to it. The test plates were incubated at 24° C. and the inhibition of growth was determined photometrically after 72 hrs.

The next experiment concerns Corynespora cassiicola. Kind of experiment: Corynespora cassiicola growth inhibition in liquid culture (microtiter plate, photometric). Particulars: Corynespora cassiicola, read-out: Observed Activity (%). The text has this:
A synergistic effect exists whenever the action of an active ingredient combination is greater than the sum of the actions of the individual components. The action to be expected E for a given active ingredient combination obeys the so-called COLBY formula and can be calculated as follows (COLBY, S. R. “Calculating synergistic and antagonistic responses of herbicide combination”. Weeds, Vol. 15, pages 20-22; 1967): • ppm=milligrams of active ingredient (=a.i.) per liter of spray mixture • X=% action by active ingredient A) using p ppm of active ingredient • Y=% action by active ingredient B) using q ppm of active ingredient. According to COLBY, the expected (additive) action of active ingredients A)+B) using p+q ppm of active ingredient is: If the action actually observed (O) is greater than the expected action (E), then the action of the combination is super-additive, i.e. there is a synergistic effect. In mathematical terms, synergism corresponds to a positive value for the difference of (O-E). In the case of purely complementary addition of activities (expected activity), said difference (O-E) is zero. A negative value of said difference (O-E) signals a loss of activity compared to the expected activity. Corynespora cassiicola (Target Spot of Soybean, Target Leaf Spot of Tomato): Conidia of the fungus from cryogenic storage were directly mixed into nutrient broth (PDB potato dextrose broth). A DMSO solution of the test compounds was placed into a microtiter plate (96-well format) and the nutrient broth containing the fungal spores was added to it. The test plates were incubated at 24° C. and the inhibition of growth was determined photometrically after 3-4 days at 620 nm. Rates and results are set out in the following tables: […]

For experiment [1], the system named is Mycosphaerella arachidis Syn. Cercospora arachidicola. The experiment can be described thus: Mycosphaerella arachidis growth inhibition in liquid culture (microtiter plate, photometric). Particulars: Mycosphaerella arachidis; A-1.3 0.03 ppm; Pyriofenone 0 ppm; read-out: Observed Activity (%). The text has this: A synergistic effect exists whenever the action of an active ingredient combination is greater than the sum of the actions of the individual components. The action to be expected E for a given active ingredient combination obeys the so-called COLBY formula and can be calculated as follows (COLBY, S. R. “Calculating synergistic and antagonistic responses of herbicide combination”. Weeds, Vol. 15, pages 20-22; 1967): • ppm=milligrams of active ingredient (=a.i.) per liter of spray mixture • X=% action by active ingredient A) using p ppm of active ingredient • Y=% action by active ingredient B) using q ppm of active ingredient. According to COLBY, the expected (additive) action of active ingredients A)+B) using p+q ppm of active ingredient is: If the action actually observed (O) is greater than the expected action (E), then the action of the combination is super-additive, i.e. there is a synergistic effect. In mathematical terms, synergism corresponds to a positive value for the difference of (O-E). In the case of purely complementary addition of activities (expected activity), said difference (O-E) is zero. A negative value of said difference (O-E) signals a loss of activity compared to the expected activity. Mycosphaerella arachidis Syn. Cercospora arachidicola (Brown Leaf Spot of Peanut): Conidia of the fungus from cryogenic storage were directly mixed into nutrient broth (PDB potato dextrose broth). A DMSO solution of the test compounds was placed into a microtiter plate (96-well format) and the nutrient broth containing the fungal spores was added to it. The test plates were incubated at 24° C. and the inhibition of growth was determined photometrically after 5-6 days at 620 nm.

Data on one compound can be found in patent US20230172209A1, “FUNGICIDAL COMPOSITIONS” (SYNGENTA CROP PROTECTION AG, priority 2020, published 2023).

Consider `COC(=O)C(O)(Cn1cncn1)c1ccc(Oc2ccc(Cl)cc2)cc1C(F)(F)F` (stereo not shown) [Compound A-1.3, Methyl 2-[4-(4-chlorophenoxy)-2-(trifluoromethyl)phenyl]-2-hydroxy-3-(1,2,4-triazol-1-yl)propanoate], for which the inhibition at 0.03 ppm in the experiment with Septoria glycines (Table 13: A-1.3 0.03 ppm) is 0%; with Septoria tritici (Table 11: A-1.3 0.03 ppm), 0%; in the experiment on Corynespora cassiicola (A-1.3 0.03 ppm, Cyclobutrifluram 0 ppm), 0%; in experiment [1] it was 50%. The inhibition at 0.06 ppm in the experiment on Septoria glycines (Table 14: A-1.3 0.06 ppm) is 20%; in the experiment with Septoria tritici (Table 12: A-1.3 0.06 ppm) it was 70%. In addition, the inhibition at 0.2 ppm in the experiment with Corynespora cassiicola (A-1.3 0.2 ppm, Pyrisoxazole 0 ppm) worked out at 20%.
